Measured values reported in patent publication US20130281313A1, “PROGNOSTIC AND/OR PREDICTIVE BIOMARKERS AND BIOLOGICAL APPLICATIONS THEREOF” (INSTITUT GUSTAVE ROUSSY, priority 2010, published 2013).

Experiments:
Format in all cases: cell-based, human
[1] = tested on: A549 cells; experiment: Cytofluorometric assessment of cell death (DiOC6(3)/PI co-staining); conditions: A549 cells; for apoptosis-inducing effect of CDDP (DiOC6(3)/PI co-staining or DNA loss, sub-G1 peak): CDDP irrespective of the presence of PN
Method: Unless otherwise specified, chemicals were purchased from Sigma-Aldrich (St. Louis, USA), culture media and supplements for cell culture from Gibco-Invitrogen (Carlsbad, USA) and plasticware from Corning (Corning, USA). […] Orlistat (Xenical®) was obtained from Roche (Basel, Switzerland). […] Undissolved material was removed by two sequential rounds of centrifugation at 12,000 G (5 min, room temperature, RT), supernatants were collected and stored at −80° C. under protection from light until use. In low-throughput experiments, all cell lines were treated with 2.5 mM pyridoxine (PN), exception made for A549 cells that received 5 mM PN.
To avoid depleting the siRNA library of selected sequences, siRNAs for validation experiments were purchased as custom molecules from Sigma-Aldrich. For low-throughput experiments, (see below for the transfection protocols employed in the siRNA screen), siRNA were transfected in A549 cells with Oligofectamine™ reagent (Invitrogen), following the manufacturer's instructions. Transfection with a non-targeting siRNA (siUNR) was employed as a negative control condition. Forty-eight hours after transfection, siRNA-mediated target downregulation was assessed by immunoblotting (see below).
All cytofluorometric determinations were carried out a FACSCalibur or a FACScan cytofluorometer (BD Biosciences, San Jose, USA) equipped with a 70 μm nozzle.
(§1) First line statistical analysis of cytofluorometric results was performed by using the CellQuest™ software (BD Biosciences), by gating on the events characterized by normal forward scatter and side scatter parameters. Apoptosis- and cell cycle-related data were further analyzed with Microsoft Excel (Microsoft Co., Redmond, USA) and statistical significance was assessed by means of two-tailed Student's t test (p<0.05).

[2] = tested on: A549 cells; experiment: Targeted metabolomic studies (ATP, ADP, AMP, GSH; RRLC-MS); conditions: A549 cells incubated for 24 h with 5 mM GSH
Method: A549 cells were left untreated or treated with 25 μM CDDP alone or in combination with 5 mM PN, for 24 h. Thereafter, both attached (living) and detached (dying/dead) cells were harvested, washed once in cold PBS and pelleted (800 G for 5 min). Pellets were resuspended in 200 μL deionized water, briefly vortexed and sonicated. 800 μl ice-cold methanol was added, and samples were kept in ice for 15 min, vortexed and centrifuged at 13,000 G for 10 min at 4° C. Supernatants were dried in a SpeedVac drier (Thermo Scientific-Pierce) and stored at −80° C. until analysis. Pellets were resuspended in 150 μL 98:2 water/acetonitrile immediately before analytical determinations (see below).
ATP, ADP, AMP and GSH were quantified on a Rapid Resolution Liquid Chromatography (RRLC) 1200SL system coupled to a 6410 Triple Quadripole (QQQ) mass spectrometer (both from Agilent Technologies). For nucleotides, RRLC was performed on 150×2.1 mm, 3.5 μM Eclipse Plus columns (Agilent Technologies) with water containing 4 mM dimethylhexylamine (DMHA) plus 0.01% (v/v) acetic acid in channel A and acetonitrile in channel B, in gradient mode at a flow rate of 0.2 mL/min: t=0 min 2% B; t=9 min 32% B; t=10 min 95% B; T=12 min 95% B, re-equilibration time=6 min. Mass spectrometry was performed in positive electrospray ionization mode at +4 kV on the QQQ system operating in MRM mode. MRM transitions were optimized with direct infusions of ATP, ADP, and AMP standards with direct infusion, and four transitions were recorded for each compounds. Parent ions were adduct ions of DMHA and also proton adducts:
For GSH, RRLC was performed on a 150×2.1 mm, 3.5 μM Stable Bond AQ column (Agilent Technologies) with water containing 0.2% (v/v) acetic acid in channel A and methanol in channel B, in gradient mode at a flow rate of 0.3 mL/min: t=0 min 2% B; t=8 min 95% B; t=9 min 95% B; re-equilibration time=6 min. Mass spectrometry was performed as above. MRM transitions were optimized with direct infusion of GSH standards.
Data collection and analysis were performed with the MassHunter software (Agilent Technologies).

[3] = tested on: A549 cells; experiment: Intracellular levels of CDDP in cell lysates; conditions: 24 h, 25 μM CDDP alone or with PN and/or GSH, normalized to protein content
Method: (E,F) Intracellular levels of CDDP (normalized to protein content) in lysates from untransfected A549 cells (D) or A549 cells transfected with a PDXK-targeting siRNA (E), treated for 24 h with 25 μM CDDP alone or in combination with PN and/or GSH. Mean±SEM (n=6). *=p<0.05 (Studen's t test), as compared to untransfected (D) or siUNR transfected (E) cells treated with CDDP only. n.s.=non significant (Student's t test), as compared to cells treated with the same concentration of GSH (D) or to siPDXK-transfected cells treated with CDDP only (E).

[4] = tested on: A549 cells; experiment: Transcriptome studies (mRNA microarrays)
Method: NSCLC A549 cells were treated with 100 μM CDDP, 75 μM C2-CER or 100 μM CdCl2 for 12 h, or with 50 μM CDDP, C2-CER or CdCl2 for 24 h. Thereafter, cells were collected and lysed for RNA extraction of following established procedures {de La Motte Rouge, 2007}. mRNA expression changes were quantified on G4112A 44 k Whole Human Genome Oligo Microarrays (Agilent Technologies, Santa Clara, USA), as previously reported {Castedo, 2006}. mRNA microarrays underwent standardized post-hybridization processing, image acquisition and analysis (see below) {Castedo, 2006}.
Data from microarray experiments were analyzed with the Rosetta Resolver® System (Rosetta Biosoftware, Seattle, USA). The threshold for statistical significance of probe signals (Intensity) was set at p=10^−5. […] For each mRNA, fold change (FC) was then defined as Intensitysample/Intensitycontrol when Intensitysample>Intensitycontrol, or as—(Intensitycontrol/Intensitysample) when Intensitysample<Intensitycontrol. Ratios were calculated as Intensitysample/Intensitycontrol.

[5] = tested on: A549 cells; experiment: Cell cycle distribution (PI staining, cytofluorometry); conditions: 10 μM CDDP alone or with PN and/or NAC
Method: To measure apoptosis-related parameters, living cells were labeled for 30 min at +37° C. with 40 nM 3,3′dihexyloxalocarbocyanine iodide (DiOC6(3), from Molecular Probes-Invitrogen, Eugene, USA), which quantifies the mitochondrial transmembrane potential (Δψm), plus 1 μg/mL propidium iodide (PI), which only accumulates in cells with ruptured plasma membrane {Galluzzi, 2009; Galluzzi, 2008; Galluzzi, 2007}. To assess cell cycle distribution, cells were collected, fixed by gentle vortexing in ice-cold 80% (v/v) ethanol (Carlo Erba Reagents, Milano, Italy) and stained with 50 μg/mL PI in 0.1% (w/v) D-glucose in PBS supplemented with 1 μg/mL (w/v) RNAse A {Mondragon, 2009; Mouhamad, 2007}. All cytofluorometric determinations were carried out a FACSCalibur or a FACScan cytofluorometer (BD Biosciences, San Jose, USA) equipped with a 70 μm nozzle.
as §1

[6] = followed by CDDP, DiOC6(3)/PI co-staining
[7] = 12 h, 100 μM CDDP, 75 μM C2-CER or 100 μM CdCl2, vs untreated cells
[8] = 24 h, 50 μM CDDP, C2-CER or CdCl2, vs untreated cells

CCCCCCCCCCCCCCC(Br)C(=O)O (stereo not shown) [2-bromopalmitate]
epistatic interaction on CDDP-induced cell death, ZDHHC9 inhibition (2-bromopalmitate) combined with IL6R blockade (extracellular antibody) [1, 6]: no significant epistatic interaction

N[C@@H](CCC(=O)N[C@@H](CS)C(=O)NCC(=O)O)C(=O)O [GSH, glutathione]
intracellular GSH levels upon extracellular GSH [2]: had no significant impact on intracellular GSH levels
intracellular accumulation of CDDP [3]: strongly inhibited the accumulation of CDDP within the cells
protection against the cytotoxic effect of CDDP plus PN ([1]; 25 or 75 μM CDDP plus PN): protected cells against the cytotoxic effect of CDDP plus PN
apoptosis-inducing effect of CDDP (DiOC6(3)/PI co-staining or DNA loss, sub-G1 peak) [1]: blocked the apoptosis-inducing effect of CDDP

CCCCCCCCCCCCC/C=C/[C@@H](O)[C@H](CO)NC(C)=O [C2-CER, C2-ceramide]
Fold change, ADAR (NM_001111) transcript [4, 7]: n.s.
Fold change, ALDH7AT (NM_001182) transcript [4, 7]: −1.85
Fold change, CD151 (NM_004357) transcript [4, 7]: n.s.
Fold change, CLIC1 (NM_001288) transcript [4, 7]: n.s.
Fold change, COMMO9 (NM_014186) transcript [4, 7]: n.s.
Fold change, COX5B (NM_001802) transcript [4, 7]: −1.62
Fold change, COX7C (NM_001867) transcript [4, 7]: −1.33
Fold change, DHRSX (NM_145177) transcript [4, 7]: n.s.
Fold change, EBP (NM_006579) transcript [4, 7]: −2.80
Fold change, EEF2 (NM_001901) transcript [4, 7]: 2.31
Fold change, FDXK (NM_003681) transcript [4, 7]: −1.89
Fold change, FN3KRP (NM_024619) transcript [4, 7]: −1.35
Fold change, HDLBP (NM_005336) transcript [4, 7]: 1.69
Fold change, HGD (NM_000187) transcript [4, 7]: −2.15
Fold change, IL6R (NM_000565) transcript [4, 7]: 2.94
Fold change, KHSRP (NM_003685) transcript [4, 7]: −2.29
Fold change, LOC389727 (NM_372092) transcript [4, 7]: n.s.
Fold change, MAT2A (NM_005911) transcript [4, 7]: −3.47
Fold change, MOL1 (NM_021960) transcript [4, 7]: −1.35
Fold change, MPP6 (NM_016447) transcript [4, 7]: n.s.
Fold change, OSTCL (NM_145303) transcript [4, 7]: 2.25
Fold change, P5MC5 (NM_002805) transcript [4, 7]: −2.20
Fold change, PLK1S1 (NM_018474) transcript [4, 7]: 1.99
Fold change, PPM1J (NM_005167) transcript [4, 7]: n.s.
Fold change, RNF26 (NM_032015) transcript [4, 7]: n.s.
Fold change, RRAD (NM_004185) transcript [4, 7]: n.s.
Fold change, SEMA3G (NM_000379) transcript [4, 7]: n.s.
Fold change, SLC22A16AS (NM_007105) transcript [4, 7]: −1.40
Fold change, SOCS6 (NM_004232) transcript [4, 7]: n.s.
Fold change, TMED1 (NM_006858) transcript [4, 7]: n.s.
Fold change, TRIP4 (NM_016213) transcript [4, 7]: 1.83
Fold change, UBE2L3 (NM_003347) transcript [4, 7]: −1.48
Fold change, UBE21 (NM_014176) transcript [4, 7]: −2.92
Fold change, W282 (NM_018029) transcript [4, 7]: n.s.
Fold change, ADAR (NM_001111) transcript [4, 8]: −1.45
Fold change, ALDH7AT (NM_001182) transcript [4, 8]: −1.98
Fold change, CD151 (NM_004357) transcript [4, 8]: n.s.
Fold change, CLIC1 (NM_001288) transcript [4, 8]: n.s.
Fold change, COMMO9 (NM_014186) transcript [4, 8]: n.s.
Fold change, COX5B (NM_001802) transcript [4, 8]: −1.61
Fold change, COX7C (NM_001867) transcript [4, 8]: n.s.
Fold change, DHRSX (NM_145177) transcript [4, 8]: n.s.
Fold change, EBP (NM_006579) transcript [4, 8]: −3.16
Fold change, EEF2 (NM_001901) transcript [4, 8]: 2.62
Fold change, FDXK (NM_003681) transcript [4, 8]: −1.91
Fold change, FN3KRP (NM_024619) transcript [4, 8]: −1.67
Fold change, HDLBP (NM_005336) transcript [4, 8]: 1.99
Fold change, HGD (NM_000187) transcript [4, 8]: −4.23
Fold change, IL6R (NM_000565) transcript [4, 8]: 3.52
Fold change, KHSRP (NM_003685) transcript [4, 8]: −2.23
Fold change, LOC389727 (NM_372092) transcript [4, 8]: n.s.
Fold change, MAT2A (NM_005911) transcript [4, 8]: −2.96
Fold change, MOL1 (NM_021960) transcript [4, 8]: −1.58
Fold change, MPP6 (NM_016447) transcript [4, 8]: n.s.
Fold change, OSTCL (NM_145303) transcript [4, 8]: 3.08
Fold change, P5MC5 (NM_002805) transcript [4, 8]: −2.27
Fold change, PLK1S1 (NM_018474) transcript [4, 8]: 1.93
Fold change, PPM1J (NM_005167) transcript [4, 8]: n.s.
Fold change, RNF26 (NM_032015) transcript [4, 8]: −2.11
Fold change, RRAD (NM_004185) transcript [4, 8]: 1.55
Fold change, SEMA3G (NM_000379) transcript [4, 8]: n.s.
Fold change, SLC22A16AS (NM_007105) transcript [4, 8]: −1.60
Fold change, SOCS6 (NM_004232) transcript [4, 8]: n.s.
Fold change, TMED1 (NM_006858) transcript [4, 8]: n.s.
Fold change, TRIP4 (NM_016213) transcript [4, 8]: 1.65
Fold change, UBE2L3 (NM_003347) transcript [4, 8]: −1.47
Fold change, UBE21 (NM_014176) transcript [4, 8]: −4.38
Fold change, W282 (NM_018029) transcript [4, 8]: n.s.

Cc1ccc(-c2cn3c4c(sc3n2)CCCC4)cc1 [cyclic pifithrin-α]
protection against CDDP, COX inhibition with sodium azide combined with TP53 inhibition with cyclic pifithrin-α [1, 6]: synergistic protection against CDDP

CC(=O)N[C@@H](CS)C(=O)O [NAC, N-acetylcysteine]
apoptosis-inducing effect of CDDP (DiOC6(3)/PI co-staining or DNA loss, sub-G1 peak) [1]: blocked the apoptosis-inducing effect of CDDP
cell cycle arrest induced by CDDP [5]: failed to reverse the cell cycle arrest induced by CDDP
